# Data from US8865623B2, “Herbicidally active cyclic diones and derivatives thereof, processes for their preparation, compositions, and method of controlling weeds” (Syngenta Limited, priority 2009, dated 2014).
# Legend:
# Type in all cases: in vivo
# Lolium perenne (LOLPE) [1] = assay: Pre-emergence herbicidal activity, glasshouse pot test; details: Lolium perenne, 312 h; Rate 250 g/ha; pre-emergence spray; evaluated after 13 days; read-out: Pre-emergence activity LOLPE (100=total damage to plant; 0=no damage to plant)
# Summary of the method: (§1)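 Potted plants sprayed one day after sowing (pre-emergence) or after 8 days (post-emergence) with formulation in acetone/water (50:50) containing 0.5% Tween 20. Glasshouse at 24/16 °C, 14 h light, 65% humidity; damage scored after 13 days (0 none, 100 total).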
# Avena fatua (AVEFA) [2] = assay: as above; details: Avena fatua, 312 h; Rate 250 g/ha; pre-emergence spray; evaluated after 13 days; read-out: Pre-emergence activity AVEFA (100=total damage to plant; 0=no damage to plant)
# Summary of the method: as §1
# [3] = test system: Echinochloa crus-galli (ECHCG); assay: as above; details: Echinochloa crus-galli, 312 h; Rate 250 g/ha; pre-emergence spray; evaluated after 13 days; read-out: Pre-emergence activity ECHCG (100=total damage to plant; 0=no damage to plant)
# Summary of the method: as §1
# [4] = test system: Alopecurus myosuroides (ALOMY); assay: as above; details: Alopecurus myosuroides, 312 h; Rate 250 g/ha; pre-emergence spray; evaluated after 13 days; read-out: Pre-emergence activity ALOMY (100=total damage to plant; 0=no damage to plant)
# Summary of the method: as §1
# Lolium perenne (LOLPE) [5] = assay: Post-emergence herbicidal activity, glasshouse pot test; details: Lolium perenne, 312 h, rate 250 g/ha, evaluated after 13 days, glasshouse, read-out: Post-emergence activity LOLPE (100=total damage to plant; 0=no damage to plant)
# Summary of the method: as §1
# Avena fatua (AVEFA) [6] = assay: as above; details: Avena fatua, 312 h, rate 250 g/ha, evaluated after 13 days, glasshouse, read-out: Post-emergence activity AVEFA (100=total damage to plant; 0=no damage to plant)
# Summary of the method: as §1
# [7] = test system: Echinochloa crus-galli (ECHCG); assay: as above; details: Echinochloa crus-galli, 312 h, rate 250 g/ha, evaluated after 13 days, glasshouse, read-out: Post-emergence activity ECHCG (100=total damage to plant; 0=no damage to plant)
# Summary of the method: as §1
# [8] = test system: Alopecurus myosuroides (ALOMY); assay: as above; details: Alopecurus myosuroides, 312 h, rate 250 g/ha, evaluated after 13 days, glasshouse, read-out: Post-emergence activity ALOMY (100=total damage to plant; 0=no damage to plant)
# Summary of the method: as §1
Structure (SMILES),pest or weed control at 250 g/ha (Lolium perenne (LOLPE) [1]) [%],pest or weed control at 250 g/ha (Avena fatua (AVEFA) [2]) [%],pest or weed control at 250 g/ha [3] [%],pest or weed control at 250 g/ha [4] [%],pest or weed control at 250 g/ha (Lolium perenne (LOLPE) [5]) [%],pest or weed control at 250 g/ha (Avena fatua (AVEFA) [6]) [%],pest or weed control at 250 g/ha [7] [%],pest or weed control at 250 g/ha [8] [%]
CCc1ccc(Oc2ncc(C(F)(F)F)cc2C(F)(F)F)cc1C1=C(O)CC2(CCOCC2)CC1=O [Example A-269],90,80,100,100,70,90,100,90
CCc1ccc(Oc2ccc(C#N)cc2F)cc1C1=C(O)CC2(CCOCC2)CC1=O [Example A-270],90,60,100,90,70,90,100,90
CCc1ccc(Oc2ccc(C(F)(F)F)cc2Cl)cc1C1=C(O)CC2(CCOCC2)CC1=O [Example A-271],90,50,100,90,70,90,100,90
CCc1ccc(Oc2ncc(C(F)(F)F)cc2Cl)cc1C1=C(O)CC2(CCOCC2)CC1=O [Example A-272],100,100,100,100,70,90,100,90
CCc1ccc(Oc2ncc(C(F)(F)F)cc2F)cc1C1=C(O)CC2(CCOCC2)CC1=O [Example A-273],100,100,100,100,100,100,100,100
CCc1ccc(Oc2ncc(Cl)cc2F)cc1C1=C(O)CC2(CCOCC2)CC1=O [Example A-274],100,100,100,100,100,100,100,100
CCc1ccc(Oc2ncc(Cl)cc2Cl)cc1C1=C(O)CC2(CCOCC2)CC1=O [Example A-275],100,90,100,100,100,100,100,90
CCc1ccc(Oc2ccc([N+](=O)[O-])c(Cl)c2)cc1C1=C(O)CC2(CCOCC2)CC1=O [Example A-276],70,10,100,40,40,10,100,60
CCc1ccc(Oc2ccc(C#N)c(Cl)c2)cc1C1=C(O)CC2(CCOCC2)CC1=O [Example A-277],100,30,100,30,100,80,100,30
CCc1ccc(Oc2ccc(C(F)(F)F)c(Cl)c2)cc1C1=C(O)CC2(CCOCC2)CC1=O [Example A-278],70,70,0,60,100,100,100,100
CC1(C)OC(C)(C)C(O)=C(c2cc(Oc3cnc4cc(Cl)ccc4n3)ccc2C2CC2)C1=O [Example A-279],100,100,100,90,100,100,100,100
CCc1ccc(Oc2ccc(C#N)c(Cl)c2)cc1C1=C(O)CC(C)(C)CC1=O [Example A-280],70,40,100,70,60,70,100,90
CCc1ccc(Oc2ccc(C(F)(F)F)cc2Cl)cc1C1=C(O)CC(C)(C)CC1=O [Example A-281],80,0,100,70,60,80,100,90
CCc1ccc(Oc2ccc(C(F)(F)F)cc2Br)cc1C1=C(O)CC(C)(C)CC1=O [Example A-282],60,10,100,10,40,60,100,70
CCc1ccc(Oc2ccc(C(F)(F)F)c(Cl)c2)cc1C1=C(O)CC(C)(C)CC1=O [Example A-283],60,10,90,70,90,90,90,80
CCc1ccc(Oc2ccc([N+](=O)[O-])c(Cl)c2)cc1C1=C(O)CC(C)(C)CC1=O [Example A-284],70,0,100,60,60,0,100,60
CCc1ccc(Oc2ncc(C(F)(F)F)cc2F)cc1C1=C(O)CC(C)(C)CC1=O [Example A-285],100,70,100,90,100,100,100,100
CCc1ccc(Oc2nc3ccccc3s2)cc1C1=C(O)CC(C)(C)CC1=O [Example A-286],100,40,100,90,100,90,100,100
CCc1ccc(Oc2nc3ccc(Cl)cc3s2)cc1C1=C(O)CC(C)(C)CC1=O [Example A-287],100,90,100,100,100,100,100,100
CCc1ccc(Oc2ncc(Cl)cn2)cc1C1=C(O)CC(C)(C)CC1=O [Example A-288],100,60,100,90,90,90,100,100
CCc1ccc(Oc2cnc3ccc(Br)cc3n2)cc1C1=C(O)CC(C)(C)CC1=O [Example A-289],90,40,100,60,100,100,100,100
